# Where “and” joins values, the source holds several entries; their conditions need not be identical. Equal entries are not always repeated. Entries after “also recorded” stand apart in the source; their conditions may differ.
# Experiments:
# [1] = system: bicuculline-induced epileptic seizures; assay: Delay of onset of bicuculline-induced seizures (anticonvulsant activity); type: in vivo, mouse; conditions: for Onset of seizures: % Saline Control / Survival Time: % Saline Control: 24 hr pretreatment, bicuculline 0.3 mg/kg; for In Vivo Delay of Time of Onset of Bicuculline-induced seizures: graded 0-5
# Protocol: In a second behavioral test, the ability of a substance to prevent or delay the onset of biculline-induced epileptic seizures was measured. […] At 24 hr after i.p. injection of the cholesteryl derivative at a dose of 30 mg/kg (64 pmol/kg), the onset of seizures was delayed by 30% after an acute i.p. injection of bicuculline at 0.3 mg/kg. […] The dexamethasone and butyl esters had no effect.
# The compounds were also injected i.p. at 1, 6 and 24 hr before the administration of bicuculline (0.3 mg/kg) s.c. The latency to the onset of generalized tonic-clonic epileptic seizures and the protection against the lethality of bicuculline were measured and evaluated as a percent of the data for vehicle-injected controls. No significant changes were obtained at the 1 hr and 6 hr time points. At the 24 hr time, however, some compounds delayed while others accelerated the onset of seizures.
# The effect of the compound to delay the onset of a bicuculline-induced seizures was evaluated.
# The ability of a substance to delay the onset of bicuculline-induced epileptic seizures in the mouse was measured (Table X). […] At 24 hr after i.p. injection of the cholesteryl derivative (6) at a dose of 30 mg/kg (64 pmol/kg), the onset of seizures was delayed by 30% (as compared to saline controls) after an acute i.p. injection of bicuculline at 0.3 mg/kg. […] The dexamethasone and butyl esters had no effect on seizures in mice.
# [2] = system: general motor activity of mice; assay: General locomotor activity of mice (Stoelting electronic activity monitor); type: in vivo, Balb/c mice; conditions: for activity in the general motor activity test (in words): mice
# Protocol: The effect of intraperitoneal (i.p.) injections of test compounds on the general motor activity of mice during a 60-min period was determined in a Stoelting electronic activity monitor. Dose-response curves were obtained from which the half-maximally effective values were calculated and the results are shown in Table V.
# The compounds were dissolved in 25% (vols.) propylene glycol in water and injected i.p. into Balb/c mice (18-24 g). Dose-response measurements were obtained for 6 animals per dose or time point. Activity was monitored for 60 min using a Stoelting Electronic Activity Monitor (EAM) apparatus to assess the general motor activity of the animals.
# The general locomotor activity of mice was measured in the Stolting activity monitor apparatus during 60 min after an intraperitoneal (i.p.) injection of a test compound.
# GABA "receptors" = assay: Inhibition of [3H]GABA binding to synaptic membranes from rat cerebellum; conditions: [3H]GABA (15 nM); synaptic membrane preparations from rat cerebellum
# Protocol: IC50 values were determined by fitting data to linearized transformations, based on including at least two concentrations of antagonists above and below the IC50, with at least triplicate replication per concentration.
# [3] = Comparative brain/liver uptake of 14C-labeled compounds (Brain Penetration Index)
# Protocol: The criterion used herein for measuring the extent to which a compound, from which the radical A is derived, crosses the blood-brain barrier is based on the uptake of this compound by the brain relative to its uptake by the liver. […] Measurements of the quantity of a compound present in brain and liver at 5 minutes after a subcutaneous (s.c.) injection were used to calculate a Brain Penetration Index (BPI), with the equation: [formula]
# This is the amount of the compound present per gram of brain tissue as a percent of the amount per gram of liver tissue.
# This procedure has the advantage that even for a sparingly soluble lipid ester, which tends to remain largely at the site of the injection and slowly diffuse into the circulation, its level in the liver will reflect the amount available rather than the initial dose injected.
# The uptake of a ^14C-labeled compound into brain was compared with the uptake into liver of the same animal.
# All determinations were carried out at 5 min after injection. The volumes of the injected doses into mice (body weight, 18-24 g) for the i.v., i.p., and s.c. doses were 0.15, 0.3 and 0.5 ml, respectively. […] Each tissue was homogenized in 8 ml of pyridine in a glass homogenizer.
# Each labeled test compound was injected as a solution in 0.5 ml of saline (Compound 7) or in 25% propylene glycol in water (Compounds 1, 5, 6) subcutaneously (s.c.) into young adult Balb/c mice (18-24 g body weight). After 5 min (or longer) animals were sacrificed and the brain and liver removed, weighed and homogenized respectively in 8 ml and 10 ml of brain protein solvent (1 % (w/v) sodium dodecyl sulfate in 6 M urea and 19 mM EDTA, pH 7.4, 0.03 M phosphate). Aliquots (0.5 ml) of the homogenates were mixed with 10 ml of Aquasol 2 (New England Nuclear) and counted in a Beckman liquid scintillation counter. The total uptake of each compound per g brain and liver tissue was calculated. The proportion of uptake into brain as compared to liver (100%) of the same animal was designated as the Brain Penetration Index (BPI), expressed as a percentage typically at 5 min after injection.
# Each of the ^14C-labeled Compounds 26, 28 and 30 were in 125 µl of the propylene glycol diluted with water up to 0.5 ml, and then injected subcutaneously into test Balb/c mice (20 ± 2 g weight). After 5 min the animals were sacrificed and the brain and liver were removed, weighed and homogenized in 8 ml and 10 ml of brain protein solvent, respectively. Next 0.5 ml aliquots were mixed with 10 ml of Aquasol 2 (New England Nuclear Corp., Boston, MA) and counted in a Beckman liquid scintillation counter. The data for the label in each tissue were used to calculate the total quantity of the compound present in brain and liver per gram of tissue. The ratio of the amount in brain as a percent of that present in liver at 5 min was taken as the Brain Penetration Index (BPI). Measurements at longer uptake times were also obtained to evaluate the accumulation of the compounds in the brain.
# CAI pyramidal cells = type: cell-based, Sprague-Dawley rats
# Protocol: Transverse slices of hippocampus (350-375 µm thick) were prepared from Sprague-Dawley rats (200-300 g) and transferred onto a nylon net fixed over a 1.5 ml superfusion chamber. The slices were maintained at 32-33°C in a humidified atmosphere of 95%/5% 02/C02. The standard medium consisted of (in mM): NaCl, 125; KCI, 3.5; CaC12,2; MgS04, 1.5; NaH2PO4, 1; NaHC03, 24; and glucose, 10. Low chloride medium was prepared by substituting sodium isethionate for sodium chloride.
# Extracellular potentials were recorded with NaCI-fitted micropipettes, and stimulus pulses were applied through bipolar platinum wire electrodes. The various drugs were dissolved in fresh medium (without glucose and phosphate) and applied to the surface of the tissue by pressure ejection from a micropipette, Sakai, Swartz and Woody, (1979).
# The inhibitory effectiveness of various compounds was investigated by measuring their ability to suppress the extracellular population spike recorded from the hippocampal CAI pyramidal layer and elicited by stimulation of stratum radiatum axons. The amplitude of this monosynaptic population spike is essentially proportional to the number of pyramidal cells discharging in response to a stimulus volley, Andersen, Bliss and Skrede, (1971).
# The various compounds were applied as droplets to the pyramidal layer approximately 75 µm from the recording electrode. The volume of a single drug application was about 300 picoliters. […] The volume ejected from each pipette was calibrated prior to use by measuring the diameter of the ejected droplet and adjusting the duration of the pressure pulse (usually 100-500 msec) until a standard diameter was reached. A constant droplet volume was used throughout the experiments. Where dose-response information was required, several pipettes with different drug concentrations were used.
# general motor activity = conditions: systemically injected doses of up to 1 g/kg (9.7 mmol/kg); previous experiments; cited from earlier work
# [4] = system: general motor activity of mice; assay: General locomotor activity of mice (Stoelting electronic activity monitor); type: in vivo, Balb/c mice; conditions: 500 µg administered intracisternally directly into the cerebrospinal fluid
# [5] = 260 μmol/kg s.c., 5 min, mice, mean ± S.E.M. (n = 3)
# [6] = Table IX summary, 5-min Brain Penetration Index
# [7] = Table VI, 270 μmol/kg s.c., 5 min, Balb/c mice
structure (smiles),measurement,setting,value
"CC/C=C\C/C=C\C/C=C\CCCCCCCCOC(=O)CCCN [Compound 5, Linolenoyl Ester of y-aminobutyric Acid]",Onset of seizures: % Saline Control,[1]; 12 mg/kg,102 ± 4 % Saline Control
same,Survival Time: % Saline Control,[1]; 12 mg/kg,118 ± 10 % Saline Control
same,Onset of seizures: % Saline Control,[1]; 17 mg/kg,73 ± 15 % Saline Control
same,Survival Time: % Saline Control,[1]; 17 mg/kg,111 ± 14 % Saline Control
same,Onset of seizures: % Saline Control,[1]; 25 mg/kg,78 ± 9 % Saline Control
same,Survival Time: % Saline Control,[1]; 25 mg/kg,68 ± 9 % Saline Control
same,Onset of seizures: % Saline Control,[1]; 36 mg/kg,50 ± 5 % Saline Control
same,Survival Time: % Saline Control,[1]; 36 mg/kg,62 ± 6 % Saline Control
same,Onset of seizures: % Saline Control,[1]; 50 mg/kg,40 ± 11 % Saline Control
same,Survival Time: % Saline Control,[1]; 50 mg/kg,63 ± 8 % Saline Control
same,acceleration of seizure onset time,"[1]; 50 mg/kg, 24 hr, listed as linolenyl ester of GABA",70% and 60%
same,In Vivo Delay of Time of Onset of Bicuculline-induced seizures,[1],0
same,activity in the general motor activity test (in words),"[2]; i.p., listed as linolenyl ester",not active
same,activity in the general motor activity test (in words),"[2]; i.p., listed as linolenyl ester of GABA",insignificant effect; also recorded: no significant effect
same,IC50,"GABA ""receptors""",40 µM
same,(BRAIN),[3]; [5],3.5 ± 0.4 nmol/g
same,(LIVER),[3]; [5],141.7 ± 8 nmol/g
same,BPI,[3]; [5],2 ± 0.6%
same,(BRAIN),"[3]; 260 μmol/kg s.c., 15 min, mice",11.0 nmol/g
same,(LIVER),"[3]; 260 μmol/kg s.c., 15 min, mice",220.8 nmol/g
same,BPI,"[3]; 260 μmol/kg s.c., 15 min, mice",5%
same,(BRAIN),"[3]; 260 μmol/kg s.c., 45 min, mice",24.9 nmol/g
same,(LIVER),"[3]; 260 μmol/kg s.c., 45 min, mice",33.3 nmol/g
same,BPI,"[3]; 260 μmol/kg s.c., 45 min, mice",75%
same,increase of 5-min BPI over GABA,"[3]; 5 min after s.c. injection, relative to GABA",2 fold
same,BPI,[3]; [6],2
same,accumulation of radioactivity in brain persisted post-injection,"[3]; s.c., mice",45 to 60 min
"NCCCC(=O)O [GABA, gamma-aminobutyric acid, reference compound]",In Vivo Delay of Time of Onset of Bicuculline-induced seizures,[1],0
same,effect on general motor activity,"[2]; 1.94 mmol/kg, i.p.",no significant effect
same,effect on general locomotor activity,[2]; dose of 9.7 mmol/kg (1 g/kg),no significant effect
same,effect after incubation of slices in PMSF (0.5 mM) for about 45 min,CAI pyramidal cells,no change
same,effect with picrotoxin (10 µM) in the medium or low chloride medium,CAI pyramidal cells,little effect
same,recovery of the population spike amplitude to 90% of the pre-droplet control value,CAI pyramidal cells; after an approximately half-maximal dose,1 to 2 min
same,time until recovery was usually complete,CAI pyramidal cells; after droplet application,2 to 3 min
same,effect on motor activity in rats,general motor activity,little effect
same,effect on general motor activity,[4],no significant effect
same,(BRAIN),"[3]; 30 μmol/kg i.v., 5 min, mouse",0.04 nmol/g
same,(LIVER),"[3]; 30 μmol/kg i.v., 5 min, mouse",4.2 nmol/g
same,BPI (5 min),"[3]; 30 μmol/kg i.v., 5 min, mouse",0.95%
same,(BRAIN),"[3]; 60 μmol/kg i.p., 5 min, mouse",0.23 nmol/g
same,(LIVER),"[3]; 60 μmol/kg i.p., 5 min, mouse",29 nmol/g
same,BPI (5 min),"[3]; 60 μmol/kg i.p., 5 min, mouse",0.80%
same,(BRAIN),"[3]; 120 μmol/kg i.p., 5 min, mouse",0.45 nmol/g
same,(LIVER),"[3]; 120 μmol/kg i.p., 5 min, mouse",46 nmol/g
same,BPI (5 min),"[3]; 120 μmol/kg i.p., 5 min, mouse",1.00%
same,(BRAIN),"[3]; 160 μmol/kg i.p., 5 min, mouse",0.66 nmol/g
same,(LIVER),"[3]; 160 μmol/kg i.p., 5 min, mouse",71 nmol/g
same,BPI (5 min),"[3]; 160 μmol/kg i.p., 5 min, mouse",0.93%
same,(BRAIN),"[3]; 210 μmol/kg i.p., 5 min, mouse",0.83 nmol/g
same,(LIVER),"[3]; 210 μmol/kg i.p., 5 min, mouse",83 nmol/g
same,BPI (5 min),"[3]; 210 μmol/kg i.p., 5 min, mouse",1.00%
same,(BRAIN),"[3]; 270 μmol/kg s.c., 5 min, mouse",1.03 nmol/g
same,(LIVER),"[3]; 270 μmol/kg s.c., 5 min, mouse",104 nmol/g
same,BPI (5 min),"[3]; 270 μmol/kg s.c., 5 min, mouse",1.00%
same,(BRAIN),"[3]; 380 μmol/kg s.c., 5 min, mouse",1.81 nmol/g
same,(LIVER),"[3]; 380 μmol/kg s.c., 5 min, mouse",165 nmol/g
same,BPI (5 min),"[3]; 380 μmol/kg s.c., 5 min, mouse",1.10%
same,BPI,[3]; [6],1
same,(BRAIN),[3]; [7],1.03 nmol/g
same,(LIVER),[3]; [7],104 nmol/g
same,BPI,"[3]; Table VI, 270 μmol/kg s.c., 5 min, Balb/c mice, mean ± S.E.M.",1±.09%
